Literature values as cited in US20030165581A1, “Compositions for treating diabetes mellitus, methods of use and manufacturing process of the same” (priority 2002, published 2003).
Read-outs that look alike come from different tables or passages of the source.

What was measured:
[1] = test system: Ehrlich ascites tumor cells; conditions: time course of glucose uptake
[2] = test system: hereditary Type II diabetic mice
Type II diabetic rats = conditions: supplementation with corosolic acid; control group showed elevation
mice = conditions: oral dose
[3] = test system: rats with experimentally induced diabetes; conditions: reduced from 300 mg/dL
[4] = test system: human subjects with mild Type II diabetes
[5] = test system: subjects with mild Type II diabetes; conditions: for drop of average blood glucose level compared to placebo: dry powder base, two-piece hard gelatin capsule; for drop of average blood glucose level: oil based soft gelatin capsule, two weeks
[6] = test system: subjects with mild Type II diabetes; conditions: for average blood glucose level: soft gelatin formulation, 48 mg daily, control 168.3
[7] = supplemented with corosolic acid

## C[C@H]1[C@H](C)CC[C@]2(C(=O)O)CC[C@]3(C)C(=CC[C@@H]4[C@@]5(C)C[C@@H](O)[C@H](O)C(C)(C)[C@@H]5CC[C@]43C)[C@H]12 [corosolic acid]
[1]
  glucose transport-stimulating activity (glucose uptake by Ehrlich cells): significant glucose transport-stimulating activity
[2]; diet including corosolic acid for five weeks vs control diet
  increase of plasma glucose levels: completely suppressed
[2]; [7]
  level of serum insulin: lowered
  total plasma cholesterol: lowered
  urinary excreted glucose: lowered
Type II diabetic rats
  glucose levels: decrease in glucose levels
Normal rabbits; after large doses
  time of peak reduction after administration: two to four
Normal rabbits; large doses
  blood sugar reduction: more than 57 mg per 100 mL blood
Normal rabbits; repetition of the first dose after two more hours
  time blood sugar remained low: more than 5 hours
mice
  blood sugar levels: reduces blood sugar levels
[3]
  blood sugar level after corosolic acid: 150 mg/dL
[4]; short-term (four weeks) treatment
  adverse effects: no signs of adverse effects
[4]; tablet after each meal three times daily, four weeks, vs placebo
  blood glucose levels: effective in reducing blood glucose levels
[5]; 16 mg per day
  drop of average blood glucose level compared to placebo: 3.18%
  drop of average blood glucose level: 4.9%
[5]; 32 mg per day
  drop of average blood glucose level compared to placebo: 6.5%
  drop of average blood glucose level: 10.7%
[5]; 48 mg per day
  drop of average blood glucose level compared to placebo: 20.2%
  drop of average blood glucose level: 31.9%
[6]; 15 days of washout after soft gelatin treatment
  blood glucose level during washout: 131.7 mg/dL
[6]; 30 days of washout after soft gelatin treatment
  blood glucose level during washout: 153.2 mg/dL
[6]; 45 days of washout after soft gelatin treatment
  blood glucose level during washout: 168.2 mg/dL
[6]; compared to untreated (diabetic) control conditions
  decline in blood glucose levels after a meal: sharper decline
[6]; dry-powder based formulation
  weight loss: no weight loss
[6]; oil-based formulation in a soft gelatin capsule
  average weight loss: 3.2 pounds
[6]; oral dose, cross-over study
  adverse effects: no signs of adverse effects
[6]; 15th day of treatment
  average blood glucose level: 127.2 mg/deciliter
[6]; 30th day of treatment
  average blood glucose level: 115.1 mg/deciliter
[6]; washout period blood glucose levels
  memory effect after termination of the treatment: up to four
